Assay results as given in patent publication US20210070748A1, “INHIBITORS OF BRUTONS TYROSINE KINASE” (Pharmacyclics LLC, priority 2015, published 2021).
Like-named read-outs stand apart in the source and are kept apart here.

Biological target: T1, BTK-WT (Homo sapiens, UniProt Q06187)
T1 construct: purified from insect cells as a full-length construct containing an N-terminal 6X-His tag; His6 (N); made in house; host or cells: insect cells (baculovirus Sf21 in Method B)
Test: Btk in vitro inhibitory activity (one of Method A TR-FRET, Method B electrophoretic mobility shift, Method C radiometric filter binding)
Format: biochemical
Settings: read-out: IC50 BTK-WT

T1 sequence (Q06187 whole entry): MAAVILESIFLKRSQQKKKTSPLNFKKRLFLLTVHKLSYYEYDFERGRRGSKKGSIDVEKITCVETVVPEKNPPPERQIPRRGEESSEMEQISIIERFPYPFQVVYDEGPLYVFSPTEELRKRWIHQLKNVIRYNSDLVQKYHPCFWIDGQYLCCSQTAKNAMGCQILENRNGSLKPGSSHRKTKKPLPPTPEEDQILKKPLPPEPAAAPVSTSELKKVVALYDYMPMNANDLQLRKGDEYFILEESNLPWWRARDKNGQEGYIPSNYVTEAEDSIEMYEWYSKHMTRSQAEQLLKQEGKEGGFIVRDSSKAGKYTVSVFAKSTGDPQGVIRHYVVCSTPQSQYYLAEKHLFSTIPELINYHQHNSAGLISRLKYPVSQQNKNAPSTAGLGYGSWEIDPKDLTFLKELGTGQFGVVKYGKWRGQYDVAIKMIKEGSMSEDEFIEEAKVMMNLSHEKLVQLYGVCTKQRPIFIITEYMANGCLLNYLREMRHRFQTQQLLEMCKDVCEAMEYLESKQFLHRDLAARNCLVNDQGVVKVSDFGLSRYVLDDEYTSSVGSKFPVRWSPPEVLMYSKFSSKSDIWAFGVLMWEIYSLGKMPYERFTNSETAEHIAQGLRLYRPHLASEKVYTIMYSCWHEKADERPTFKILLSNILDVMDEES

| Compound | IC50 (E compounds, Table 17) [nM] | IC50 (Table 13, A compounds) [nM] |
| --- | --- | --- |
| C=CC(=O)N1CC[C@@H](N(C)c2cnc(C(N)=O)c(Nc3cnn(CCOC)c3)n2)C1 [Example E-110, (R)-5-((1-acryloylpyrrolidin-3-yl)(methyl)amino)-3-(1-(2-methoxyethyl)-1H-pyrazol-4-ylamino)pyrazine-2-carboxamide] | ≤ 10 | – |
| C[C@@H]1[C@H](NC(=O)c2ccc(C3CC3)cc2F)CCCN1c1cnc(C(N)=O)c(Nc2nc3c(s2)CN(C)CC3)n1 [Example A-108, 5-[(2R,3R)-3-(4-cyclopropyl-2-fluorobenzamido)-2-methylpiperidin-1-yl]-3-({5-methyl-4H,5H,6H,7H-[1,3]thiazolo[5,4-c]pyridin-2-yl}amino)pyrazine-2-carboxamide] | – | 100 to 1000 |
| Cc1cc(Nc2nc(N3CCC[C@@H](NC(=O)N4Cc5ccccc5C4=O)C3)cnc2C(N)=O)sn1 [Example A-183, N-[(3R)-1-{5-carbamoyl-6-[(3-methyl-1,2-thiazol-5-yl)amino]pyrazin-2-yl}piperidin-3-yl]-1-oxo-2,3-dihydro-1H-isoindole-2-carboxamide] | – | ≤ 10 |
| C[C@@H]1[C@H](NC(=O)c2ccc(C3CC3)cc2F)CCCN1c1cnc(C(N)=O)c(Nc2cnn(C)c2)c1 [Example A-127, 5-[(2R,3R)-3-(4-cyclopropyl-2-fluorobenzamido)-2-methylpiperidin-1-yl]-3-[(1-methyl-1H-pyrazol-4-yl)amino]pyridine-2-carboxamide] | – | 10 to 100 |
| Cn1cc(Nc2nc(N3C[C@@H](NC(=O)c4ccc(C5CC5)cc4)CC(F)(F)C3)cnc2C(N)=O)cn1 [Example A-187, (S)-5-(5-(4-cyclopropylbenzamido)-3,3-difluoropiperidin-1-yl)-3-(1-methyl-1H-pyrazol-4-ylamino)pyrazine-2-carboxamide] | – | 100 to 1000 |
| C[C@@H]1[C@H](NC(=O)c2noc(C(C)(C)C)n2)CCCN1c1cnc(C(N)=O)c(Nc2cnn(C)c2)n1 [Example E-149, 5-(tert-butyl)-N-((2R,3R)-1-(5-carbamoyl-6-((1-methyl-1H-pyrazol-4-yl)amino)pyrazin-2-yl)-2-methylpiperidin-3-yl)-1,2,4-oxadiazole-3-carboxamide] | 100 to 1000 | – |
| C[C@@H]1[C@H](NC(=O)c2ccc(C(C)(C)O)cc2)CCCN1c1cnc(C(N)=O)c(Nc2ccc(C3(C)CCN(C4CC4)CC3)cc2)n1 [Example E-147, 3-((4-(1-cyclopropyl-4-methylpiperidin-4-yl)phenyl)amino)-5-((2R,3R)-3-(4-(2-hydroxypropan-2-yl)benzamido)-2-methylpiperidin-1-yl)pyrazine-2-carboxamide] | ≤ 10 | – |
| C=CC(=O)N1CCC[C@@H](N(C)c2cnc(C(N)=O)c(Nc3ccc(C4CCN(C5CCCC5)CC4)cc3)n2)C1 [Example E-125, (R)-5-((1-acryloylpiperidin-3-yl)(methyl)amino)-3-(4-(1-cyclopentylpiperidin-4-yl)phenylamino)pyrazine-2-carboxamide] | ≤ 10 | – |
| C[C@@H]1[C@H](NC(=O)c2ccc(C3CC3)cc2)CCCN1c1cnc(C(N)=O)c(Nc2ccc(N3CCN(C)CC3)cc2)n1 [Example A-170, 5-[(2R,3R)-3-(4-cyclopropylbenzamido)-2-methylpiperidin-1-yl]-3-{[4-(4-methylpiperazin-1-yl)phenyl]amino}pyrazine-2-carboxamide] | – | ≤ 10 |
| C=CC(=O)N1CCC[C@@H](Nc2nnc(C(N)=O)c(Nc3ccc(-c4ncccn4)cc3)n2)C1 [Example E-41, (R)-3-(1-acryloylpiperidin-3-ylamino)-5-(4-(pyrimidin-2-yl)phenylamino)-1,2,4-triazine-6-carboxamide] | ≤ 10 | – |
| C[C@@H]1[C@H](n2ccc3cc(C4CC4)ccc3c2=O)CCCN1c1cnc(C(N)=O)c(Nc2ccc(N3CCN(C)CC3)cc2)n1 [Example A-140, 5-[(2R,3R)-3-(6-cyclopropyl-1-oxo-1,2-dihydro-isoquinolin-2-yl)-2-methylpiperidin-1-yl]-3-{[4-(4-methylpiperazin-1-yl)phenyl]amino}pyrazine-2-carboxamide] | – | ≤ 10 |
| Cc1cc(Nc2nc(N3CC[C@H](O)[C@@H](N4CCC[C@@H](Nc5cc(Cl)cc(C(F)(F)F)c5)C4=O)C3)nnc2C(N)=O)sn1 [Example E-10, 3-((3R,3'S,4'S)-3-(3-chloro-5-(trifluoromethyl)phenylamino)-4′-hydroxy-2-oxo-1,3′-bipiperidin-1-yl)-5-(3-methylisothiazol-5-ylamino)-1,2,4-triazine-6-carboxamide] | ≤ 10 | – |
| C=CC(=O)N1CCC[C@@H](Nc2nnc(C(N)=O)c(Nc3ccc(C4(C)CCN(C5CC5)CC4)cc3)n2)[C@H]1C [Example E-127, 3-(((2R,3R)-1-acryloyl-2-methylpiperidin-3-yl)amino)-5-((4-(1-cyclopropyl-4-methylpiperidin-4-yl)phenyl)amino)-1,2,4-triazine-6-carboxamide] | ≤ 10 | – |

More lines, now with the values ahead:

| IC50 (E compounds, Table 17) [nM] | IC50 (Table 13, A compounds) [nM] | Compound |
| --- | --- | --- |
| 100 to 1000 | – | C[C@@H]1CCN(c2cnc(C(N)=O)c(Nc3cnn(C)c3)n2)C[C@@H]1NC(=O)c1ccc(C2CC2)cc1 [Example E-140, 5-((3R,4R)-3-(4-cyclopropylbenzamido)-4-methylpiperidin-1-yl)-3-((1-methyl-1H-pyrazol-4-yl)amino)pyrazine-2-carboxamide] |
| ≤ 10 | – | C[C@@H]1[C@H](NC(=O)c2cccc(C(C)(C)O)c2)CCCN1c1cnc(C(N)=O)c(Nc2cnn(C)c2)n1 [Example E-145, 5-((2R,3R)-3-(3-(2-hydroxypropan-2-yl)benzamido)-2-methylpiperidin-1-yl)-3-((1-methyl-1H-pyrazol-4-yl)amino)pyrazine-2-carboxamide] |
| ≤ 10 | – | Cc1nc(-c2ccc(C(=O)N[C@@H]3CCCN(c4cnc(C(N)=O)c(Nc5cnn(C)c5)n4)[C@@H]3C)cc2)cs1 [Example E-155, 3-((1-methyl-1H-pyrazol-4-yl)amino)-5-((2R,3R)-2-methyl-3-(4-(2-methylthiazol-4-yl)benzamido)piperidin-1-yl)pyrazine-2-carboxamide] |
| – | ≤ 10 | CC(C)N1CCN(c2ccc(Nc3nc(N4CCC[C@@H](NC(=O)c5ccc(C6CC6)cc5F)[C@H]4C)cnc3C(N)=O)cc2)CC1 [Example A-149, 5-[(2R,3R)-3-(4-cyclopropyl-2-fluorobenzamido)-2-methylpiperidin-1-yl]-3-({4-[4-(propan-2-yl)piperazin-1-yl]phenyl}amino)pyrazine-2-carboxamide] |
| 10 to 100 | – | C[C@@H]1[C@H](NC(=O)c2ccc(C3CC3)cc2)CCCN1c1cnc(C(N)=O)c(Nc2cnc(C3CCOCC3)nc2)n1 [Example E-144, 5-((2R,3R)-3-(4-cyclopropylbenzamido)-2-methylpiperidin-1-yl)-3-((2-(tetrahydro-2H-pyran-4-yl)pyrimidin-5-yl)amino)pyrazine-2-carboxamide] |
| ≤ 10 | – | Cc1cc(C(=O)N[C@@H]2CCCN(c3cnc(C(N)=O)c(Nc4cnn(C)c4)n3)[C@@H]2C)ccc1C(C)(C)O [Example E-152, 5-((2R,3R)-3-(4-(2-hydroxypropan-2-yl)-3-methylbenzamido)-2-methylpiperidin-1-yl)-3-((1-methyl-1H-pyrazol-4-yl)amino)pyrazine-2-carboxamide] |
| ≤ 10 | – | C=CC(=O)N1CCC[C@@H](Nc2nnc(C(N)=O)c(Nc3ccc(-c4ncco4)cc3)n2)C1 [Example E-40, (R)-3-(1-acryloylpiperidin-3-ylamino)-5-(4-(oxazol-2-yl)phenylamino)-1,2,4-triazine-6-carboxamide] |
| ≤ 10 | – | CCC(O)(CC)c1ccc(C(=O)N[C@@H]2CCCN(c3cnc(C(N)=O)c(Nc4cnn(C)c4)n3)[C@@H]2C)cc1 [Example E-151, 5-((2R,3R)-3-(4-(3-hydroxypentan-3-yl)benzamido)-2-methylpiperidin-1-yl)-3-((1-methyl-1H-pyrazol-4-yl)amino)pyrazine-2-carboxamide] |
| – | ≤ 10 | CN1CCN(C(=O)c2ccc(Nc3nc(N4CCC[C@@H](n5ccc6cc(C7CC7)ccc6c5=O)C4)cnc3C(N)=O)cc2)CC1 [Example A-115, 5-[(3R)-3-(6-cyclo-propyl-1-oxo-1,2-dihydroisoquinolin-2-yl)piperidin-1-yl]-3-{[4-(4-methylpiperazine-1-carbonyl)phenyl]amino}pyr-azine-2-carboxamide] |
| – | ≤ 10 | C[C@@H]1[C@H](NC(=O)c2ccc(C3CC3)nc2)CCCN1c1cnc(C(N)=O)c(Nc2cnn(C)c2)n1 [Example A-190, 5-((2R,3R)-3-(6-cyclopropylnicotinamido)-2-methylpiperidin-1-yl)-3-(1-methyl-1H-pyrazol-4-ylamino)pyr-azine-2-carboxamide] |
| ≤ 10 | – | C[C@@H]1[C@H](NC(=O)c2ccc(-c3ncco3)cc2)CCCN1c1cnc(C(N)=O)c(Nc2cnn(C)c2)n1 [Example E-154, 3-((1-methyl-1H-pyrazol-4-yl)amino)-5-((2R,3R)-2-methyl-3-(4-(oxazol-2-yl)benzamido)piperidin-1-yl)pyrazine-2-carboxamide] |
